Source: ChEMBL document CHEMBL1201862, “PubChem BioAssay data set” (2004)
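Compound exposure: 48 hours, 5 concentrations, 96-well plates. The concentration for 50% growth inhibition is given as GI50.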 Calls of active or inactive are those of the source. Cut-off read from the data, not from the text of the source: active = GI50 up to about 1.1 µM and inactive = higher.

Legend:
Assay in all cases: NCI tumour cell line growth inhibition, 48 h
OVCAR-8 = tested on: OVCAR-8
UACC-62 = tested on: UACC-62
MOLT-4 = tested on: MOLT-4
COLO 205 = tested on: COLO 205
M19-MEL = tested on: M19-MEL
ACHN = tested on: ACHN
NCI-H460 = tested on: NCI-H460
HCC 2998 = tested on: HCC 2998
SK-MEL-2 = tested on: SK-MEL-2
SNB-19 = tested on: SNB-19
NCI-H522 = tested on: NCI-H522
U-251 = tested on: U-251
M14 = tested on: M14
DLD-1 = tested on: DLD-1
TK-10 = tested on: TK-10
XF498 = tested on: XF498
Malme-3M = tested on: Malme-3M
SF-295 = tested on: SF-295
CCRF-CEM = tested on: CCRF-CEM
SF-268 = tested on: SF-268
LOX IMVI = tested on: LOX IMVI
DMS-273 = tested on: DMS-273
KM-20L2 = tested on: KM-20L2
HOP-92 = tested on: HOP-92
A549 = tested on: A549
SNB-78 = tested on: SNB-78
SK-MEL-5 = tested on: SK-MEL-5
HL-60 = tested on: HL-60
UACC-257 = tested on: UACC-257
OVCAR-5 = tested on: OVCAR-5
LXFL 529 = tested on: LXFL 529
NCI-H23 = tested on: NCI-H23
HCT-15 = tested on: HCT-15
DMS-114 = tested on: DMS-114
SK-MEL-28 = tested on: SK-MEL-28
HOP-62 = tested on: HOP-62
OVCAR-3 = tested on: OVCAR-3
RPMI-8226 = tested on: RPMI-8226
SR = tested on: SR
UO-31 = tested on: UO-31
SW-620 = tested on: SW-620
786-0 = tested on: 786-0
HCT-116 = tested on: HCT-116
SF-539 = tested on: SF-539
SNB-75 = tested on: SNB-75
A498 = tested on: A498
OVCAR-4 = tested on: OVCAR-4
IGROV-1 = tested on: IGROV-1
EKVX = tested on: EKVX
K562 = tested on: K562
SN12C = tested on: SN12C
HT-29 = tested on: HT-29
RXF 393 = tested on: RXF 393
SK-OV-3 = tested on: SK-OV-3
NCI-H226 = tested on: NCI-H226
CAKI-1 = tested on: CAKI-1
KM12 = tested on: KM12

How did the GI50 (OVCAR-8) turn out when O=S1(=O)OCCOS(=O)(=O)C1(Br)Cc1ccccc1 was run?
Its GI50 is > 100 µM (inactive).

What about the GI50 (UACC-62) of the same molecule?
Its GI50 is > 100 µM (inactive).

And the GI50 (MOLT-4)?
The GI50 was > 100 µM (inactive).

What about the GI50 (COLO 205) of the same molecule?
The GI50 was > 100 µM (inactive).

And the GI50 (M19-MEL)?
Its GI50 is > 100 µM (inactive).

What about the GI50 (ACHN) of the same molecule?
Its GI50 is > 100 µM (inactive).

And the GI50 (NCI-H460)?
The GI50 was > 100 µM (inactive).

And the GI50 (HCC 2998)?
Its GI50 is > 100 µM (inactive).

What about the GI50 (SK-MEL-2) of the same molecule?
The GI50 was > 100 µM (inactive).

And the GI50 (SNB-19)?
The GI50 was > 100 µM (inactive).

And the GI50 (NCI-H522)?
The GI50 was > 100 µM (inactive).

What about the GI50 (U-251) of the same molecule?
Its GI50 is > 100 µM (inactive).

And the GI50 (M14)?
The GI50 was > 100 µM (inactive).

What about the GI50 (DLD-1) of the same molecule?
The GI50 was > 100 µM (inactive).

And the GI50 (TK-10)?
The GI50 was > 100 µM (inactive).

And the GI50 (XF498)?
Its GI50 is > 100 µM (inactive).

And the GI50 (Malme-3M)?
Its GI50 is > 100 µM (inactive).

What about the GI50 (SF-295) of the same molecule?
Its GI50 is > 100 µM (inactive).

And the GI50 (CCRF-CEM)?
The GI50 was > 100 µM (inactive).

And the GI50 (SF-268)?
Its GI50 is > 100 µM (inactive).

What about the GI50 (LOX IMVI) of the same molecule?
The GI50 was > 100 µM (inactive).

What about the GI50 (DMS-273) of the same molecule?
Its GI50 is > 100 µM (inactive).

And the GI50 (KM-20L2)?
Its GI50 is > 100 µM (inactive).

And the GI50 (HOP-92)?
The GI50 was > 100 µM (inactive).

What about the GI50 (A549) of the same molecule?
The GI50 was > 100 µM (inactive).

And the GI50 (SNB-78)?
The GI50 was > 100 µM (inactive).

What about the GI50 (SK-MEL-5) of the same molecule?
The GI50 was > 100 µM (inactive).

What about the GI50 (HL-60) of the same molecule?
The GI50 was > 100 µM (inactive).

What about the GI50 (UACC-257) of the same molecule?
Its GI50 is > 100 µM (inactive).

And the GI50 (OVCAR-5)?
Its GI50 is > 100 µM (inactive).

What about the GI50 (LXFL 529) of the same molecule?
The GI50 was > 100 µM (inactive).

What about the GI50 (NCI-H23) of the same molecule?
Its GI50 is > 100 µM (inactive).

What about the GI50 (HCT-15) of the same molecule?
The GI50 was greater than 100 µM.

What about the GI50 (DMS-114) of the same molecule?
Its GI50 is > 100 µM (inactive).

What about the GI50 (SK-MEL-28) of the same molecule?
Its GI50 is > 100 µM (inactive).

What about the GI50 (HOP-62) of the same molecule?
The GI50 was > 100 µM (inactive).

What about the GI50 (OVCAR-3) of the same molecule?
Its GI50 is > 100 µM (inactive).

What about the GI50 (RPMI-8226) of the same molecule?
Its GI50 is > 100 µM (inactive).

And the GI50 (SR)?
The GI50 was > 100 µM (inactive).

And the GI50 (UO-31)?
Its GI50 is > 100 µM (inactive).

What about the GI50 (SW-620) of the same molecule?
The GI50 was > 100 µM (inactive).

And the GI50 (786-0)?
The GI50 was > 100 µM (inactive).

What about the GI50 (HCT-116) of the same molecule?
The GI50 was > 100 µM (inactive).

What about the GI50 (SF-539) of the same molecule?
Its GI50 is > 100 µM (inactive).

And the GI50 (SNB-75)?
Its GI50 is 33 µM (inactive).

What about the GI50 (A498) of the same molecule?
Its GI50 is > 100 µM (inactive).

What about the GI50 (OVCAR-4) of the same molecule?
The GI50 was > 100 µM (inactive).

What about the GI50 (IGROV-1) of the same molecule?
Its GI50 is > 100 µM (inactive).

And the GI50 (EKVX)?
The GI50 was > 100 µM (inactive).

And the GI50 (K562)?
Its GI50 is > 100 µM (inactive).

What about the GI50 (SN12C) of the same molecule?
Its GI50 is > 100 µM (inactive).

And the GI50 (HT-29)?
Its GI50 is > 100 µM (inactive).

And the GI50 (RXF 393)?
The GI50 was > 100 µM (inactive).

What about the GI50 (SK-OV-3) of the same molecule?
Its GI50 is > 100 µM (inactive).

And the GI50 (NCI-H226)?
The GI50 was > 100 µM (inactive).

N=C1CSC2=NC3=C(CCC/C3=C\c3ccccc3)C(c3ccccc3)N12 (stereo not drawn) was tested. Which GI50 (OVCAR-8) did it give?
Its GI50 is 5.92 µM (inactive).

What about the GI50 (UACC-62) of the same molecule?
Its GI50 is 9.23 µM (inactive).

And the GI50 (MOLT-4)?
Its GI50 is 2.49 µM (inactive).

What about the GI50 (COLO 205) of the same molecule?
Its GI50 is 8.89 µM (inactive).

What about the GI50 (M19-MEL) of the same molecule?
Its GI50 is 5.19 µM (inactive).

What about the GI50 (ACHN) of the same molecule?
Its GI50 is 11.9 µM (inactive).

What about the GI50 (NCI-H460) of the same molecule?
The GI50 was 3.42 µM (inactive).

And the GI50 (HCC 2998)?
The GI50 was 3.31 µM (inactive).

What about the GI50 (SK-MEL-2) of the same molecule?
Its GI50 is 2.27 µM (inactive).

What about the GI50 (SNB-19) of the same molecule?
Its GI50 is 5.94 µM (inactive).

And the GI50 (NCI-H522)?
Its GI50 is 2.61 µM (inactive).

What about the GI50 (U-251) of the same molecule?
The GI50 was 3.42 µM (inactive).

And the GI50 (M14)?
Its GI50 is 3.3 µM (inactive).

And the GI50 (DLD-1)?
The GI50 was 5.4 µM (inactive).

What about the GI50 (TK-10) of the same molecule?
The GI50 was 5.28 µM (inactive).

And the GI50 (XF498)?
The GI50 was 20.7 µM (inactive).

What about the GI50 (CAKI-1) of the same molecule?
The GI50 was 12.5 µM (inactive).

And the GI50 (Malme-3M)?
Its GI50 is 17.2 µM (inactive).

And the GI50 (SF-295)?
The GI50 was 5.85 µM (inactive).

What about the GI50 (CCRF-CEM) of the same molecule?
Its GI50 is 2.24 µM (inactive).

What about the GI50 (SF-268) of the same molecule?
Its GI50 is 11.8 µM (inactive).

And the GI50 (LOX IMVI)?
The GI50 was 2.26 µM (inactive).

What about the GI50 (DMS-273) of the same molecule?
The GI50 was 3.8 µM (inactive).

And the GI50 (KM-20L2)?
The GI50 was 4.37 µM (inactive).

What about the GI50 (A549) of the same molecule?
Its GI50 is 4.07 µM (inactive).

And the GI50 (SNB-78)?
Its GI50 is 5.77 µM (inactive).

What about the GI50 (SK-MEL-5) of the same molecule?
Its GI50 is 6.31 µM (inactive).

What about the GI50 (HL-60) of the same molecule?
Its GI50 is 2.34 µM (inactive).

What about the GI50 (UACC-257) of the same molecule?
Its GI50 is 11.5 µM (inactive).

What about the GI50 (OVCAR-5) of the same molecule?
The GI50 was 6.53 µM (inactive).

What about the GI50 (LXFL 529) of the same molecule?
Its GI50 is 4.89 µM (inactive).

And the GI50 (NCI-H23)?
Its GI50 is 3.93 µM (inactive).

And the GI50 (KM12)?
Its GI50 is 3.7 µM (inactive).

What about the GI50 (DMS-114) of the same molecule?
The GI50 was 2.8 µM (inactive).

And the GI50 (SK-MEL-28)?
The GI50 was 7.5 µM (inactive).

And the GI50 (HOP-62)?
The GI50 was 11 µM (inactive).

What about the GI50 (OVCAR-3) of the same molecule?
Its GI50 is 2.72 µM (inactive).

What about the GI50 (RPMI-8226) of the same molecule?
The GI50 was 2.16 µM (inactive).

What about the GI50 (UO-31) of the same molecule?
The GI50 was 11.2 µM (inactive).

What about the GI50 (SW-620) of the same molecule?
The GI50 was 3.92 µM (inactive).

And the GI50 (786-0)?
The GI50 was 5.65 µM (inactive).

What about the GI50 (HCT-116) of the same molecule?
The GI50 was 3.54 µM (inactive).

And the GI50 (SF-539)?
The GI50 was 6 µM (inactive).

What about the GI50 (SNB-75) of the same molecule?
Its GI50 is 10.6 µM (inactive).

What about the GI50 (A498) of the same molecule?
The GI50 was 13.9 µM (inactive).

And the GI50 (IGROV-1)?
The GI50 was 5.6 µM (inactive).

And the GI50 (EKVX)?
Its GI50 is 2.62 µM (inactive).

What about the GI50 (K562) of the same molecule?
Its GI50 is 3.21 µM (inactive).

And the GI50 (SN12C)?
Its GI50 is 11.5 µM (inactive).

What about the GI50 (HT-29) of the same molecule?
The GI50 was 2.97 µM (inactive).

What about the GI50 (RXF 393) of the same molecule?
Its GI50 is 4.5 µM (inactive).

And the GI50 (SK-OV-3)?
The GI50 was 15.1 µM (inactive).

What about the GI50 (NCI-H226) of the same molecule?
Its GI50 is 6.38 µM (inactive).
